One molecule from patent publication US9757393B2 (priority 2015, dated 2017) can be followed below.

The structures appear in SMILES notation.

One test concerns HFD-fed C57BL/6J mice. The test is described as follows: Histopathology examination of epididymal WAT and liver tissue. The class given is in vivo. To be noted: for ballooning degeneration of hepatocyte: liver tissue; for average area of adipocytes (epididymal WAT): oral gavage daily for 4 weeks. The procedure: (§1) Experimental Animals: the experiments are conducted under the guidelines of the Institutional Animal Care and Use Committee of Central Taiwan University of Science and Technology. As previously described, four-week-old male C57BL/6J mice (n=63) is purchased from the National Laboratory Animal Breeding and Research Center, Ministry of Science and Technology. After 1-week of acclimatization, mice are designed to initiate the study, and the study lasts for 12 weeks. […] The CON group and high-fat control (HF) group are given with vehicle only. The low-fat diet consisted of fat 10%, whereas the high-fat diet (HFD) consisted of fat 45% (of total energy, % kcal). The compositions of the experimental diets are shown as described. At the end of the study, food is derived from the animals (from 10 p.m. to 10 a.m.). On the next day, the mice are sacrificed, and blood and tissue are collected for analysis. Livers, skeletal muscles, and white adipose tissues (WATs) (including epididymal, mesenteric and retroperitoneal WAT) are excised and weighed, and then immediately stored in a freezer at −80° C. Heparin (30 units/mL) (Sigma) is added to blood samples. Plasma samples are collected by centrifugation at 1600 g for 15 min at 4° C. within 30 min, and plasma is obtained for insulin and leptin level analysis.
A portion of the collected epididymal WAT and liver tissue is fixed with formalin (200 g/kg) neutral buffered solution and embedded in paraffin. Sections (8 μm) are cut and stained with hematoxylin and eosin. A microscope (Leica, DM2500) and Leica Digital camera (DFC-425-C) are used for microscopic examination and images taken, respectively.

A further test relates to membrane GLUT4. The test is described as follows: Western blotting of membrane GLUT4 in skeletal muscle. The class given is in vivo, C57BL/6J mice. The note with it: HFD-fed mice; for muscular membrane GLUT4 protein contents: vs HF group. The procedure:
as §1
Protein extractions and immunoblots for the determination of membrane GLUT4, phospho-AMPK (Thr172), and phospho-Akt (Ser 473) proteins are carried out on frozen skeletal muscle and liver tissue from mice, which follows a previous paper. Additionally, membrane GLUT4 is carried out on frozen skeletal muscle from mice, and the total membrane fractions are collected with buffer and centrifuged as a previously described. The protein contents of membrane GLUT4, phospho-AMPK, phospho-Akt, total AMPK, and total Akt are detected by western blotting. Western blotting has been determined as described elsewhere. Subsequently, antibodies are detected using horseradish peroxidase linked to a goat anti-IgG rabbit secondary antibody and visualized using an ECL system. Membrane GLUT4, structural proteins GAPDH and β-actin are purchased from Santa Cruz Biotechnology (Santa Cruz, Calif., USA); phospho-AMPK was obtained from Abcam Inc. (Cambridge, Mass., USA); phospho-Akt, total AMPK, and total Akt are from Cell Signaling Technology, Inc. (Danver Mass., USA); the BCA protein assay kit is from Thermo Scientific (Rockford, Ill., USA); and the ECL reagent kit is from GE Healthcare BioSciences (Buckinghamshire, UK). The secondary antibody antirabbit is from Jackson ImmunoResearch Laboratories, Inc. (West Grove, Pa., USA). The density blotting is analyzed using Alpha Easy FC software (Alpha Innotech Corp., Randburg, South Africa). Structural proteins GAPDH and β-actin are obtained by stripping the nitrocellulose membrane proteins of liver and skeletal muscle, respectively.
In general terms: In western blotting, separated proteins are transferred to a membrane and probed.

Another test deals with apo A-I mRNA. The test is described as follows: Semiquantitative RT-PCR, liver tissue: apo A-I. To be noted: HFD-fed mice. The class given is in vivo, C57BL/6J mice. The procedure:
as §1
(§2) The experiment is performed as in a previously described protocol. Total RNA from the liver tissue is isolated with a Trizol reagent (Molecular Research Center, Inc., Cincinnati, Ohio, USA) according to the manufacturer's directions. Total RNA (1 μg) is reverse transcribed to cDNA with 5 μL of Moloney murine leukemia virus reverse transcriptase (Epicenter, Madison, Wis., USA) as a previously described protocol. […] The relative density of the band is evaluated using AlphaDigiDoc 1201 software (Alpha Innotech Co., San Leandro, Calif., USA). All of the measured PCR products are normalized to the amount of cDNA of GAPDH in each sample.

The test system of another test is SREBP2 mRNA. The experiment in a line: Semiquantitative RT-PCR, liver tissue: SREBP2. The class given is in vivo, C57BL/6J mice. The note with it: HFD-fed mice. The procedure:
as §1, §2

For a further test, the system named is apo C-III mRNA. The test is described as follows: Semiquantitative RT-PCR, liver tissue: apo C-III. The class given is in vivo, C57BL/6J mice. To be noted: HFD-fed mice. The procedure: as §1, §2

`CC(C)[C@@H](C)C=C[C@@H](C)[C@H]1CC[C@H]2C3=CCC4C[C@@H](O)CC[C@]4(C)C3=CC[C@]12C` (stereo partly drawn) [ergostatrien-3β-ol, ergosta-7,9(11),22-trien-3β-ol]: the “ballooning degeneration of hepatocyte” value in the test with HFD-fed C57BL/6J mice (10 mg/kg/day), in the test with HFD-fed C57BL/6J mice (20 mg/kg/day) and with HFD-fed C57BL/6J mice (40 mg/kg/day) was “decreases” in each case. The results for the “average area of adipocytes (epididymal WAT)” value with HFD-fed C57BL/6J mice (10 mg/kg/day), in the test on HFD-fed C57BL/6J mice (20 mg/kg/day) and with HFD-fed C57BL/6J mice (40 mg/kg/day) were 4204.0±131.5 μm2, 3535.7±340.2 μm2 and 3458.9±30.7 μm2, respectively. Also, in the test on membrane GLUT4 (40 mg/kg/day), the “enhancement of muscular membrane GLUT4 protein” value is “approximately 2.7 fold”. For the same molecule, the “muscular membrane GLUT4 protein contents” value in the test with membrane GLUT4 (10 mg/kg/day), with membrane GLUT4 (20 mg/kg/day) and in the test on membrane GLUT4 (40 mg/kg/day) was “increased” in each case. Further, the “mRNA levels of apolipoprotein A-I (apo A-I)” value with apo A-I mRNA (10 mg/kg/day), with apo A-I mRNA (20 mg/kg/day) and in the test on apo A-I mRNA (40 mg/kg/day) was “increased” throughout. In addition, the “mRNA level of SREBP2” value in the test on SREBP2 mRNA (10 mg/kg/day), with SREBP2 mRNA (20 mg/kg/day) and in the test on SREBP2 mRNA (40 mg/kg/day) was “decreased” each time. Further, the “mRNA level of apo C-III” value in the test with apo C-III mRNA (10 mg/kg/day), with apo C-III mRNA (20 mg/kg/day) and in the test on apo C-III mRNA (40 mg/kg/day) was “decreased” throughout.
